Test results from patent US10940113B2, “Pharmaceutical composition for colon targeting, method for treating a colon-related disease using the same and preparation method thereof” (priority 2017, dated 2021).

System: distal colitis induced via intracolonic injection of DNBS
Assay: DNBS-induced distal colitis animal test
Assay type: in vivo, Male Wistar mice
Conditions: 2 CAP qd × 7, PO, sacrificed at Day 8
Protocol: […] were starved for 24 hr, and distal colitis was induced via intracolonic injection of DNBS (2,4-dinitrobenzene sulfonic acid, 30 mg in 0.5 mL ethanol (30%)). Then, 2 mL air was injected after instillation of the enema to ensure the solution was remained in the colon. The test substance (the pharmaceutical composition of Embodiment 3-1) and mesalamine were oral administered 24 hr and 2 hr prior to the DNBS injection, followed by administering one dose a day, and 5 days. The total doses of the test substance and mesalamine were 7 doses. The body weight, fecal occult blood and fecal consistency were recorded every day during the experiment. The animals were sacrificed at Day 8. The adhesions of colon and other organs were observed after abdominal opening, the colitis still can be observed, and the colon was carried out and weighted.

Q: With `Nc1ccc(O)c(C(=O)O)c1` [Mesalamine, mesalamine] as the molecule, how does the Adhesion read?
A: 0.0 ± 0.0

Q: And the Colon width?
A: 1.0 ± 0.0

Q: And the Strictures?
A: 2.6 ± 0.2

Q: What about the Ulcers/Inflammation of the same molecule?
A: 3.2 ± 0.54
